“And” between values parts separate entries of the source, which are not always exact repeats. Identical values can stand only once.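 Cells were grown in 96-well plates and exposed to each compound for 48 hours at five concentrations; endpoints were interpolated linearly between bracketing concentrations, or set to the highest concentration if not reached. GI50 = concentration required for 50% inhibition of growth. TGI denotes the concentration required for complete inhibition of growth.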
Experiments:
Assay in all cases: inhibition of tumour cell growth, NCI panel, 48 h
[1] = tested on: 786-0 renal
[2] = tested on: CAKI-1 renal
[3] = tested on: HCT-15 colon
[4] = tested on: IGROV1 ovarian
[5] = tested on: NCI-H522 lung
[6] = tested on: OVCAR-4 ovarian
[7] = tested on: RPMI-8226 leukemia
[8] = tested on: SF-295 CNS
[9] = tested on: SR leukemia
[10] = tested on: UACC-62 melanoma

SMILES | TGI [1] | TGI [2] | TGI [3] | TGI [4] | TGI [5] | TGI [6] | TGI [7] | TGI [8] | TGI [9] | TGI [10] | GI50 [1] | GI50 [2] | GI50 [3] | GI50 [4] | GI50 [5] | GI50 [6] | GI50 [7] | GI50 [8] | GI50 [9] | GI50 [10]
CC1CN(CCO)CC(C)O1 (stereo not given) | > 100 µM | > 100 µM | > 100 µM | > 100 µM | > 100 µM | > 100 µM | > 100 µM | > 100 µM | > 100 µM | > 100 µM |  |  |  |  |  |  |  |  |  | 
CCCCC1(N=[N+]=[N-])C(=O)c2cccc3c2N(CCC3)C1=O (stereo not given) | > 100 µM | > 100 µM | > 100 µM | > 100 µM | > 100 µM | > 100 µM | > 100 µM | > 100 µM | > 100 µM | > 100 µM |  |  |  |  |  |  |  |  |  | 
COc1ccc(C(=O)/C=C/c2ccc(Cl)cc2)cc1S(N)(=O)=O | 3.69 µM | 10.6 µM | 10.6 µM | 8.34 µM | 4.51 µM | 12.6 µM | 6.53 µM | 10.2 µM | 6.86 µM | 17.5 µM | 1.74 µM | 2.72 µM | 2.14 µM | 2.67 µM | 1.93 µM | 3.46 µM | 2.61 µM | 3.04 µM | 0.865 µM | 4.88 µM
CC(C)(O)Cn1c(=O)c(Oc2ccc(F)cc2F)cc2cnc(NC3CCOCC3)nc21 | > 25 µM | > 25 µM | > 25 µM | > 25 µM | > 25 µM | > 25 µM | > 25 µM | > 25 µM | > 25 µM | > 25 µM | > 25 µM | > 25 µM | > 25 µM | > 25 µM | > 25 µM | > 25 µM | > 25 µM | > 25 µM | > 25 µM | > 25 µM
Cc1cc(O)c2c(c1)C[C@@H](O)C1=C2C(=O)c2c(O)ccc(OC3CC(O)C(OC4CC(OC5CCC(OC6CC(O)C(OC7CC(OC8CCC(O)C(C)O8)C(O)C(C)O7)C(C)O6)C(C)O5)C(O)C(C)O4)C(C)O3)c2C1=O (stereo not given in full) |  | 0.274 µM and 1.18 µM and 1.45 µM | 0.148 µM and 0.488 µM | 0.344 µM and 2.47 µM | 0.0534 µM and 0.217 µM and 0.415 µM |  |  |  |  | 0.134 µM and 0.658 µM and 1.18 µM | 0.49 µM and 0.28 µM | 0.398 µM and 0.439 µM | 0.231 µM | 1.14 µM | 0.0888 µM and 0.176 µM | 0.326 µM | 0.321 µM and 0.483 µM | 1.5 µM and 3.02 µM | 0.033 µM and 0.0475 µM | 0.237 µM and 0.315 µM
CC(C)c1ccc2c(c1)CCC1C(C)(C)[C@@H](O)CC[C@]21C (stereo not given in full) | 52.5 µM | > 100 µM | > 100 µM | > 100 µM | 79 µM | > 100 µM | 52 µM | 43.4 µM | 33.4 µM | > 100 µM |  |  |  |  |  |  |  |  |  | 
[N-]=[N+]=Nc1ccc(S(=O)(=O)Oc2cc(OS(=O)(=O)c3ccc(N=[N+]=[N-])cc3)cc(OS(=O)(=O)c3ccc(N=[N+]=[N-])cc3)c2)cc1 | > 100 µM | > 10 µM | > 100 µM | > 100 µM | > 100 µM | > 10 µM | > 100 µM | > 100 µM | > 100 µM | > 100 µM |  |  |  |  |  |  |  |  |  | 
CCOP1(=O)OCC2OC(n3cnc4c(N)ncnc43)C(O)C2O1 (stereo not given) | > 100 µM | > 100 µM | > 100 µM | > 100 µM | > 100 µM | > 100 µM | > 100 µM | > 100 µM | > 100 µM | > 100 µM |  |  |  |  |  |  |  |  |  | 
Cc1cc(Cl)n2c(nc3ccccc32)c1C#N | 6.48 µM | 1.41 µM | 4.12 µM | 1.82 µM | 1.22 µM | 3.43 µM | 2.45 µM | 4.91 µM | 24.2 µM | 3.66 µM | 0.768 µM | 0.282 µM | 0.53 µM | 0.414 µM | 0.235 µM | 0.971 µM | 0.231 µM | 0.521 µM | 0.348 µM | 1.14 µM
Cc1ncc(C(=O)Nc2ccc(CN3CCN(C)CC3)c(C(F)(F)F)c2)cc1C#Cc1c(N)ncc2ccc(C#N)cc12 | 3.06 µM | 7.22 µM | 8.86 µM | 4 µM | 21.7 µM | 11 µM | 9.18 µM | > 50 µM | 12.2 µM | 6.1 µM | 1.19 µM | 0.89 µM | 0.547 µM | 0.111 µM | 1.61 µM | 0.975 µM | 1.21 µM | > 26.7 µM | 1.42 µM | 0.0362 µM
O=C(c1ccccc1)c1nnn(Cc2cccc(Cl)c2)c1C(=O)c1ccccc1 | > 100 µM | > 100 µM | > 100 µM | > 100 µM | > 100 µM | > 100 µM | > 100 µM | > 100 µM | > 100 µM | > 100 µM |  |  |  |  |  |  |  |  |  | 
COC1CC(OC2OC(CO)C(O)C(O)C2O)/C(=C\C#N)C(O)C1OC (stereo not given) | > 100 µM | > 100 µM | > 100 µM | > 100 µM | > 100 µM | > 100 µM | > 100 µM | > 100 µM | > 100 µM | > 100 µM |  |  |  |  |  |  |  |  |  | 
O=c1c(Cl)nsnc1Cl | 3.32 µM | 37.3 µM | 51.1 µM | 32.4 µM | 3.81 µM | 49.4 µM | 5.22 µM | 40.8 µM | 4.43 µM | 33.4 µM |  |  |  |  |  |  |  |  |  | 
COc1c(O)c2ccccc2c2cc(O)ccc12 | 25.1 µM | 22.9 µM | 20.1 µM | 21.6 µM | 15.7 µM | 22.8 µM | 35.7 µM | 23.5 µM | > 68.4 µM | 6.1 µM |  |  |  |  |  |  |  |  |  | 
Clc1ccc(Cl)c(N/N=C\c2c[nH]c3ccccc23)c1 | 25.4 µM | 19.6 µM | > 100 µM | 0.623 µM | 14.8 µM | 23 µM | 26.1 µM | 70.4 µM | 32.2 µM | 22.6 µM | 12.8 µM | 5.43 µM | 8.81 µM | 0.0611 µM | 1.78 µM | 10.7 µM | 6.16 µM | 13.8 µM | 4.14 µM | 9.92 µM
CCC12C=CCN3CC[C@]4(C(=C(C(=O)OC)[C@@H]1Nc1ncnc5c1ncn5C1OC(COC(C)=O)C(OC(C)=O)C1OC(C)=O)Nc1ccccc14)C32 (stereo not given in full) | 4.01 µM | 12.6 µM | 7.79 µM | 7.31 µM | 3.12 µM | 5.23 µM | 18.9 µM | 9.67 µM | 6.17 µM | 10.3 µM |  |  |  |  |  |  |  |  |  | 
